Measured values reported in patent US20210330611A1, “THERAPY FOR NEUROLOGICAL DISEASES/DISORDERS” (priority 2020, published 2021).
Several values for one entry are separate records, joined by “and”; a condition that tells them apart may be missing. Equal values may be shown once. Where a name gives a salt, the structure may show the parent alone. Read-outs that look alike come from different tables or passages of the source.

How the values were obtained:
[1] = system: fibrin- and LPS-induced microglia activation; assay: cells; format: cell-based, rat
[2] = system: primary rat microglia; assay: Cell toxicity (dead cells, size <150 μm2) in coated fibrin (cFib) assay; settings: primary microglia HTS;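 note: share of dead cells sized under 150 µm2 at 10 µM in fibrin-stimulated microglia HTS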
[3] = system: primary rat microglia
[4] = system: fibrin-induced microglia activation; assay: Image-based assay of fibrin-induced microglia activation (HTS and dose response); format: cell-based, rat; settings: for inhibition at 10 µM: Rattus norvegicus, Microglia, read-out: Fibrin % inhibition
[5] = system: LPS-induced microglia activation; assay: Image-based assay of LPS-induced microglia activation (HTS and dose response); format: cell-based, rat
[6] = classification by fibrin and LPS inhibition in HTS
[7] = fibrin stimulation, cell size <150 μm2 as marker of toxicity
[8] = quadrant by fibrin and LPS inhibition, HTS at 10 μM
[9] = fibrin assay, dead cells (size <150 μm2)
[10] = primary microglia HTS, fibrin stimulation, compounds at 10 μM, 10 µM
[11] = Rattus norvegicus, Microglia, read-out: LPS % inhibition
[12] = Rattus norvegicus, Microglia, 48 h, read-out: LPS % inhibition
[13] = Rattus norvegicus, Microglia, primary microglia HTS, LPS stimulation, compounds at 10 μM; read-out: LPS % inhibition
[14] = classification by fibrin and LPS inhibition, HTS at 10 μM
[15] = primary microglia HTS, fibrin stimulation, compounds at 10 μM
[16] = Rattus norvegicus, Microglia, 48 h; read-out: LPS % inhibition
[17] = primary microglia HTS, fibrin stimulation, cell size >800 μm2 as marker of activation
[18] = quadrant by fibrin and LPS inhibition in HTS of 1907 compounds
[19] = Rattus norvegicus, Microglia, primary HTS, 10 μM, LPS-stimulated primary microglia; read-out: LPS % inhibition
[20] = primary HTS, 10 μM, fibrin-stimulated primary microglia
[21] = primary microglia HTS, fibrin stimulation, activation = cell size >800 μm2

C#CCN(C)[C@H](C)Cc1ccccc1 [Selegiline]
Quadrant (FIG. 5b) [1, 6]: Q4 | Fibrin % cell toxicity [2, 7]: 0% and 1% | LPS % cell toxicity ([3]; rat): 0%

COc1ccc(CC2c3cc(OC)c(OC)cc3CC[N+]2(C)CCC(=O)OCCCCCOC(=O)CC[N+]2(C)CCc3cc(OC)c(OC)cc3C2Cc2ccc(OC)c(OC)c2)cc1OC (stereo not drawn) [Atracurium Besylate]
Quadrant (FIG. 5b) [1, 8]: Q4 | Fibrin % cell toxicity [2, 9]: 0% and 1% | Fibrin % inhibition [4, 10]: −3% and 2% | LPS % cell toxicity ([3]; rat): 0%

CSCC[C@H](NC(=O)[C@H](Cc1c[nH]c2ccccc12)NC(=O)CCNC(=O)OC(C)(C)C)C(=O)N[C@@H](CC(=O)O)C(=O)N[C@@H](Cc1ccccc1)C(N)=O [Pentagastrin]
Fibrin % cell toxicity [2, 7]: 1% | LPS % cell toxicity [3]: 1%

C[C@H]1[C@H](NC(=O)/C(=N\OC(C)(C)C(=O)O)c2csc(N)n2)C(=O)N1S(=O)(=O)O [Aztreonam]
Quadrant (FIG. 5b) [1, 8]: Q4 | Fibrin % cell toxicity [2, 9]: 1% and 0% | LPS % cell toxicity ([3]; rat): 0%

CC(C)NC[C@@H](O)COc1cccc2ccccc12 [Dexpropranolol Hydrochloride]
inhibition at 10 µM [5, 11]: 19% | Quadrant (FIG. 5b) [1]: Q4 | inhibition at 10 µM [4]: -21% | LPS % cell toxicity ([3]; rat): 0%

CC(C)c1cccc(C(C)C)c1O [Propofol]
inhibition at 10 µM [5, 12]: 11% | Quadrant (FIG. 5b) [1]: Q4 | inhibition at 10 µM [4]: -18% | LPS % cell toxicity ([3]; rat): 0%

O=C(O[C@@H]1C[C@@H]2C[C@H]3C[C@H](C1)N2CC3=O)c1c[nH]c2ccccc12 [Dolasetron]
inhibition at 10 µM [5, 13]: -3% | Quadrant (FIG. 5b) [1, 14]: Q4 | inhibition at 10 µM [4, 15]: -19% | LPS % cell toxicity ([3]; rat): 0%

O=C(O)Cc1ccccc1 [Phenylacetic acid]
Quadrant (FIG. 5b) [1, 6]: Q4 | Fibrin % cell toxicity [2, 7]: 1% | LPS % cell toxicity ([3]; rat): 0%

CC(=O)Oc1cc2c(s1)CCN(C(C(=O)C1CC1)c1ccccc1F)C2 (stereo not drawn) [Prasugrel]
inhibition at 10 µM [5, 16]: 22% | Quadrant (FIG. 5b) [1, 6]: Q4 | inhibition at 10 µM [4, 17]: 15% | LPS % cell toxicity ([3]; rat): 1%

CSc1ccc2c(c1)N(CCC1CCCCN1C)c1ccccc1S2 (stereo not drawn) [Thioridazine hydrochloride, reference compound]
inhibition at 10 µM [5, 12]: 118% | Activity [1]: fib/LPS | Quadrant (FIG. 5b) [1]: Q2 | inhibition at 10 µM [4]: 116% | LPS % cell toxicity ([3]; rat): 73%

C[C@@H]1C[C@@H]([C@H](O)CC2CC(=O)NC(=O)C2)C(=O)[C@@H](C)C1 [Cycloheximide]
inhibition at 10 µM ([5]; Rattus norvegicus, Microglia, 48 h, primary microglia HTS, LPS stimulation; increased cell size (>800 μm^2) as marker of activation; read-out: LPS % inhibition): 123% | Quadrant (FIG. 5b) [1, 18]: Q2 | inhibition at 10 µM ([4]; primary microglia HTS, fibrin stimulation, increased cell size (>800 μm^2) as marker of activation): 108% | LPS % cell toxicity ([3]; rat): 45%

C[C@]12CCC(=O)C=C1C=C[C@@H]1[C@@H]2CC[C@@]2(C)[C@H]1CC[C@@]2(O)CCC(=O)O [Canrenoic Acid, Potassium Salt]
inhibition at 10 µM [5, 19]: 8% | Quadrant (FIG. 5b) ([1]; primary HTS, 10 μM): Q4 | inhibition at 10 µM [4, 20]: -8% | LPS % cell toxicity ([3]; rat): 0%

CC1CNc2c(cccc2S(=O)(=O)N[C@@H](CCCNC(=N)N)C(=O)N2CC[C@@H](C)C[C@@H]2C(=O)O)C1 (stereo partly drawn) [Argatroban]
inhibition at 10 µM [5, 13]: 8% | Quadrant (FIG. 5b) [1, 8]: Q4 | inhibition at 10 µM [4, 15]: -10% | LPS % cell toxicity ([3]; rat): 0%

CC[C@H]1CN2CCc3cc(OC)c(OC)cc3[C@@H]2C[C@@H]1C[C@H]1NCCc2cc(OC)c(OC)cc21 [Emetine, Emetine Dihydrochloride]
LPS % inhibition [5]: 115% | Quadrant (FIG. 5b) [1]: Q2 | Fibrin % inhibition [4]: 117% | LPS % cell toxicity [3]: 46%

Cn1c(=O)c2c(ncn2C)n(C)c1=O [Caffeine]
inhibition at 10 µM [5, 11]: 10% | Quadrant (FIG. 5b) [1]: Q4 | inhibition at 10 µM [4]: 2% | LPS % cell toxicity ([3]; rat): 0%

CCOC(=O)c1cncn1[C@H](C)c1ccccc1 [Etomidate]
Quadrant (FIG. 5b) [1, 14]: Q4 | Fibrin % cell toxicity ([2]; fibrin assay, dead cells (size <150 μm2), compounds at 10 μM): 0% | Fibrin % inhibition [4, 10]: −19% and −24% | LPS % cell toxicity ([3]; rat): 0%

OC[C@@H](O)[C@@H](O)[C@H](O)[C@@H](O)CO [Sorbitol]
Quadrant (FIG. 5b) [1, 6]: Q4 | Fibrin % cell toxicity [2, 7]: 1% and 0% | LPS % cell toxicity ([3]; rat): 0%

OCCOCCN1CCN(C2=Nc3ccccc3Sc3ccccc32)CC1 [Quetiapine]
inhibition at 10 µM [5, 12]: 13% | Quadrant (FIG. 5b) [1]: Q4 | inhibition at 10 µM [4]: -2% | LPS % cell toxicity ([3]; rat): 0%

COCCCC/C(=N\OCCN)c1ccc(C(F)(F)F)cc1 [Fluvoxamine]
inhibition at 10 µM ([5]; Rattus norvegicus, Microglia, 48 h, primary microglia HTS, LPS stimulation, activation = cell size >800 μm2; read-out: LPS % inhibition): -3% | Quadrant (FIG. 5b) [1, 18]: Q4 | inhibition at 10 µM [4, 21]: -8% | LPS % cell toxicity ([3]; rat): 0%

C[C@@H](c1ncncc1F)[C@](O)(Cn1cncn1)c1ccc(F)cc1F [Voriconazole]
inhibition at 10 µM ([5]; Rattus norvegicus, Microglia, primary microglia HTS, 10 μM, LPS-stimulated, cell size >800 μm^2 as marker of activation; read-out: LPS % inhibition): 5% | Quadrant (FIG. 5b) ([1]; HTS of 1907 compounds, quadrant by fibrin and LPS inhibition): Q4 | inhibition at 10 µM ([4]; primary microglia HTS, 10 μM, fibrin-stimulated, cell size >800 μm^2 as marker of activation): -42% | LPS % cell toxicity ([3]; rat): 0%

Cc1c(C(N)=O)cc([N+](=O)[O-])cc1[N+](=O)[O-] [Dinitolmide]
inhibition at 10 µM [5, 11]: 10% | Quadrant (FIG. 5b) [1]: Q4 | inhibition at 10 µM [4]: -45% | LPS % cell toxicity ([3]; rat): 0%

O=C(N[C@H](CO)[C@H](O)c1ccc([N+](=O)[O-])cc1)C(Cl)Cl [Chloramphenicol]
inhibition at 10 µM [5, 19]: 6% | Quadrant (FIG. 5b) ([1]; primary HTS, 10 μM): Q4 | inhibition at 10 µM [4, 20]: 19% | LPS % cell toxicity ([3]; rat): 0%

O=C(O[C@H]1CN2CCC1CC2)N1CCc2ccccc2[C@@H]1c1ccccc1 [Solifenacin Succinate]
inhibition at 10 µM [5, 16]: -4% | Quadrant (FIG. 5b) [1, 6]: Q4 | inhibition at 10 µM [4, 17]: -2% | LPS % cell toxicity ([3]; rat): 0%

O=NN(CCCl)C(=O)NCCCl [Carmustine]
inhibition at 10 µM [5, 19]: 9% | Quadrant (FIG. 5b) ([1]; primary HTS, 10 μM): Q4 | inhibition at 10 µM [4, 20]: 1% | LPS % cell toxicity ([3]; rat): 0%

COc1ccc(Cl)cc1C(=O)NCCc1ccc(S(=O)(=O)NC(=O)NC2CCCCC2)cc1 [Glibenclamide, Glyburide]
LPS % inhibition ([5]; primary microglia HTS, LPS stimulation, activation = cell size >800 μm2): 8% | Quadrant (FIG. 5b) [1, 18]: Q4 | Fibrin % inhibition [4, 21]: −23% | LPS % cell toxicity [3]: 0%

O=C(CCCN1CCC(O)(c2ccc(Br)cc2)CC1)c1ccc(F)cc1 [Bromperidol]
inhibition at 10 µM [5, 19]: 7% | Quadrant (FIG. 5b) ([1]; primary HTS, 10 μM): Q4 | inhibition at 10 µM [4, 20]: -6% | LPS % cell toxicity ([3]; rat): 0%
